Reference: patent publication US4963553A, “4-[(substituted) alkylcarbonyl]-4,5-dihydro- and -4,5,6,7-tetrahydro-7-[(substituted)phenyl]pyrazolo[1,5-a]pyrimidines” (American Cyanamid Co., priority 1988, dated 1990)
Counter-ions that a name gives are not always drawn.

Test system: rats
Test: Non-conditioned passive avoidance conflict procedure in rats (anxiolytic)
Format: in vivo, rat (Wistar strain, male)
Conditions: 25 mg/kg, oral, 60 minutes
Experimental: A test used to assess antianxiety effects is the non-conditioned passive avoidance procedure described by J. R. Vogel, B. Beer and D. E. Clody, "A Simple and Reliable Conflict Procedure for Testing Antianxiety Agents", Psychopharmacologia, 21, 1-7 (1971). A conflict situation is induced in rats by a modification of this method.
Groups of 8 naive, Wistar strain male rats (Royalhart Farms, New Hampton, N.J.), weighing 200-240 g each, were deprived of water for 48 hours. The test compounds were administered in single or graded, oral doses, suspended in 2% starch with 5% polyethylene glycol in distilled water and one drop of polysorbate 80. Control animals received the vehicle alone. At 60 minutes each rat was placed in an individual clear plastic chamber. Tap water was available ad libitum from a nipple located in a black box off the main chamber. A 0.7 milliampere AC shocking current was established between the stainless steel grid floor and the tap. After 20 licks of non-shocked drinking, a 2 second shocking current was administered to the rat. This ratio of 20 licks of non-shocked drinking followed by a 2 second shock was continued for a total of 3 minutes. The number of shocks taken by each rat during the 3 minute interval was recorded and compared to a control group. […]

## N#Cc1cnn2c1N(C(=O)CN1CCN(CCC3CCCCC3)CC1)CC=C2c1cccc(C(F)(F)F)c1 [Example 41, 4-[[4-(2-Cyclohexylethyl)-1-piperazinyl]acetyl]-4,5-dihydro-7-[3-(trifluoromethyl)phenyl]pyrazolo[1,5-a]pyrimidine-3-carbonitrile]
  Result (No. of shocks per 3 min.): 18.0 shocks per 3 min.

## CN1CCN(CC(=O)N2CC=C(c3cccc(C(F)(F)F)c3)n3ncc(C#N)c32)CC1 [Example 77, 4,5-Dihydro-4-[(4-methyl-1-piperazinyl)acetyl]-7-[3-(trifluoromethyl)phenyl]pyrazolo[1,5-a]-pyrimidine-3-carbonitrile. dihydrochloride]
  Result (No. of shocks per 3 min.): 17.4 shocks per 3 min.
